Results published in patent publication US20150189884A1, “METHODS OF CONTROLLING INSECTS” (Syngenta Participations AG, priority 2012, published 2015).
Like-named read-outs stand apart in the source and are kept apart here.

Test system: Anthonomus grandis (Cotton Boll Weevil)
Assay: Anthonomus grandis (Cotton Boll Weevil) test on sprayed cotton plants, mortality assessed
Assay type: in vivo
Conditions: 120 h, read-out: control (mortality assessed)
Method: Anthonomus grandis (Cotton Boll Weevil)
Cotton plants are treated (100 mL spray volume) and 10 adult weevils are added to each plant (2 replicates per concentration). 5 days after infestation the mortality is assessed. The following compounds were tested and gave at least 80% control at 50 ppm: B3, B4, C2, C3, C4, E1, E7
Compounds are tested according to the above method.

[1] = 50 ppm, cotton plants treated (100 mL spray volume), 10 adult weevils per plant, 5 days after infestation

| SMILES | mortality at 50 ppm [1] [%] | mortality at 50 ppm [%] |
| --- | --- | --- |
| C[C@H](NC(=O)C1CC1)c1ccc(N2CCC(c3cc(C(F)(F)F)cc(C(F)(F)F)c3)(C(F)(F)F)C2)cc1 (stereo partly drawn) [Compound B4, N-[(1S)-1-[4-[3-[3,5-bis(trifluoromethyl)phenyl]-3-(trifluoromethyl)pyrrolidin-1-yl]phenyl]ethyl]cyclopropanecarboxamide] | ≥ 80 | – |
| CCC(=O)NC1CCc2cc(C3=NOC(c4cc(Cl)cc(Cl)c4)(C(F)(F)F)C3)ccc21 (centres unmarked) [Compound E1] | – | ≥ 80 |
| N#Cc1cc(C2=NCC(c3cc(Cl)c(Cl)c(Cl)c3)(C(F)(F)F)C2)ccc1-n1cncn1 (centres unmarked) [Compound C2, 2-(1,2,4-triazol-1-yl)-5-[3-(3,4,5-trichlorophenyl)-3-(trifluoromethyl)-2,4-dihydropyrrol-5-yl]benzonitrile] | ≥ 80 | – |
| C[C@H](NC(=O)C1CC1)c1ccc(C2(C(F)(F)F)CN=C(c3cc(Cl)c(Cl)c(Cl)c3)C2)cc1 (stereo partly drawn) [Compound B3, N-[(1S)-1-[4-[5-(3,4,5-trichlorophenyl)-3-(trifluoromethyl)-2,4-dihydropyrrol-3-yl]phenyl]ethyl]cyclopropanecarboxamide] | ≥ 80 | – |
| N#Cc1cc(C2=NOC(c3cc(Cl)c(F)c(Cl)c3)(C(F)(F)F)C2)ccc1-n1cncn1 (centres unmarked) [Compound C3] | – | ≥ 80 |
